{
  "source": "the kinase profiling compilation of Christmann-Franck et al. (2016)",
  "assay_in_all_cases": "radiometric filter-binding kinase assay, Kinase HotSpot",
  "details_in_all_cases": "compound 0.5 µM; ATP 10 µM",
  "key": {"ITK (human)": {"target": "ITK (human) (UniProt Q08881)", "sequence (Q08881 whole entry, looked up)": "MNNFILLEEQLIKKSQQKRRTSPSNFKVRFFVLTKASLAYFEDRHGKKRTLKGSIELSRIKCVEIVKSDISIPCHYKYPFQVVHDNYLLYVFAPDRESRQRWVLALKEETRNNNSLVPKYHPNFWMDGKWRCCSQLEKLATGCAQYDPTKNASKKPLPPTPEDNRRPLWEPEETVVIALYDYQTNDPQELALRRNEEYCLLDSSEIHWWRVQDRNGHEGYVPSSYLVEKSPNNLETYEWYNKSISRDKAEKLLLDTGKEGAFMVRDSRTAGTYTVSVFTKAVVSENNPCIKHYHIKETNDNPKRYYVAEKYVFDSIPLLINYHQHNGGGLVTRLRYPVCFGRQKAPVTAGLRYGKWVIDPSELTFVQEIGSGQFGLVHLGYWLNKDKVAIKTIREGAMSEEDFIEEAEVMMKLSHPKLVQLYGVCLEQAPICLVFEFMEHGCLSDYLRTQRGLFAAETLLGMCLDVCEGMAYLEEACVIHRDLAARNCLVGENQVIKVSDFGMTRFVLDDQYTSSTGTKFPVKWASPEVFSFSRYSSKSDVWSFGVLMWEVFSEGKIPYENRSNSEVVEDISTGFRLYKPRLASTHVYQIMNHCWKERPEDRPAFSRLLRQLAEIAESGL"}, "CAMK1D (human)": {"target": "CAMK1D (human) (UniProt Q8IU85)"}, "LIMK1 (human)": {"target": "LIMK1 (human) (UniProt P53667)"}, "PKN2 (human)": {"target": "PKN2 (human) (UniProt Q16513)", "sequence (Q16513 whole entry, looked up)": "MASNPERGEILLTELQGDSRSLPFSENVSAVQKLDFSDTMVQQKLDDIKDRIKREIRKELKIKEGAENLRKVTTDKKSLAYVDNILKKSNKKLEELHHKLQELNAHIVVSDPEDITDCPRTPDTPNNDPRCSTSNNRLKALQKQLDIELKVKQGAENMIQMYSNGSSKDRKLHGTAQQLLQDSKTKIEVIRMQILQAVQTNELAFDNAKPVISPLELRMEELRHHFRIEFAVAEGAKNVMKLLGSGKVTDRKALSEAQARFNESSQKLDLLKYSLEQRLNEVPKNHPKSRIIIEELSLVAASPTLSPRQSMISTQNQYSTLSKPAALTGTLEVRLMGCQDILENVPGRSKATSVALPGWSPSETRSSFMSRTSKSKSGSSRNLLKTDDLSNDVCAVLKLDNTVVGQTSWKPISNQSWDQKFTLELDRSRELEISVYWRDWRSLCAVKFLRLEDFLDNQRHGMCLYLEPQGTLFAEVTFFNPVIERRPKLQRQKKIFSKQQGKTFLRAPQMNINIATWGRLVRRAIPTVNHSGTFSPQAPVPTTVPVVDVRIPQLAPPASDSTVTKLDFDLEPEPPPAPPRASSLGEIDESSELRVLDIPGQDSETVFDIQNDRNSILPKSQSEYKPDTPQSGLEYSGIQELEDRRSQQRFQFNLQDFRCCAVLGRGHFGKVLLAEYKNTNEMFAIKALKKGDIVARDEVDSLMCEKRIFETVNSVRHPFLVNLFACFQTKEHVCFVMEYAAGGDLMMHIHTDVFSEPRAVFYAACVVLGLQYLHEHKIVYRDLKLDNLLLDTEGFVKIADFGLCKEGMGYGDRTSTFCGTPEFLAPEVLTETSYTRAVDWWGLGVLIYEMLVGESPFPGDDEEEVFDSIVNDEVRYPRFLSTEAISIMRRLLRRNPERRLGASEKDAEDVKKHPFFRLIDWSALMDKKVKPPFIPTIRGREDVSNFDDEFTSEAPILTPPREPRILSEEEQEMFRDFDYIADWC"}, "CSNK1G2 (human)": {"target": "CSNK1G2 (human) (UniProt P78368)"}, "DMPK (human)": {"target": "DMPK (human) (UniProt Q09013)", "sequence (Q09013 whole entry, looked up)": "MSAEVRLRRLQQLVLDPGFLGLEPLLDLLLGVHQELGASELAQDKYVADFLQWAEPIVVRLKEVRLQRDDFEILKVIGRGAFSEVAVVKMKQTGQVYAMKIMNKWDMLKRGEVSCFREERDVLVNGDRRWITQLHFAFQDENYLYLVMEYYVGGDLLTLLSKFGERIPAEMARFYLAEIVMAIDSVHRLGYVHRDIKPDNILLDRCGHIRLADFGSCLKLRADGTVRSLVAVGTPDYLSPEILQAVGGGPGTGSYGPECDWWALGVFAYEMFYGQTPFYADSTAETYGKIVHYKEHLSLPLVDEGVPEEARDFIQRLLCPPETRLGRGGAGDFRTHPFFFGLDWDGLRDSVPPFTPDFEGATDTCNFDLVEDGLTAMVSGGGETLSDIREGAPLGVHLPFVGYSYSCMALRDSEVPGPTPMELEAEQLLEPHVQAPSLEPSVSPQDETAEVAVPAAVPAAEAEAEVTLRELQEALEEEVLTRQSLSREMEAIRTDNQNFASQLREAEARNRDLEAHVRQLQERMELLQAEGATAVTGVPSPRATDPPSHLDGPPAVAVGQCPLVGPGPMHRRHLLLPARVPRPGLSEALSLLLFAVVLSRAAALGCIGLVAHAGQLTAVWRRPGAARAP"}, "CDK5 CDK5R1 p35 (human)": {"target": "CDK5 CDK5R1 p35 (human) (UniProt Q00535+Q15078)"}, "STK39 (human)": {"target": "STK39 (human) (UniProt Q9UEW8)"}, "PIM3 (human)": {"target": "PIM3 (human) (UniProt Q86V86)"}, "PRKCZ (human)": {"target": "PRKCZ (human) (UniProt Q05513)"}, "CAMK2G (human)": {"target": "CAMK2G (human) (UniProt Q13555)", "sequence (Q13555 whole entry, looked up)": "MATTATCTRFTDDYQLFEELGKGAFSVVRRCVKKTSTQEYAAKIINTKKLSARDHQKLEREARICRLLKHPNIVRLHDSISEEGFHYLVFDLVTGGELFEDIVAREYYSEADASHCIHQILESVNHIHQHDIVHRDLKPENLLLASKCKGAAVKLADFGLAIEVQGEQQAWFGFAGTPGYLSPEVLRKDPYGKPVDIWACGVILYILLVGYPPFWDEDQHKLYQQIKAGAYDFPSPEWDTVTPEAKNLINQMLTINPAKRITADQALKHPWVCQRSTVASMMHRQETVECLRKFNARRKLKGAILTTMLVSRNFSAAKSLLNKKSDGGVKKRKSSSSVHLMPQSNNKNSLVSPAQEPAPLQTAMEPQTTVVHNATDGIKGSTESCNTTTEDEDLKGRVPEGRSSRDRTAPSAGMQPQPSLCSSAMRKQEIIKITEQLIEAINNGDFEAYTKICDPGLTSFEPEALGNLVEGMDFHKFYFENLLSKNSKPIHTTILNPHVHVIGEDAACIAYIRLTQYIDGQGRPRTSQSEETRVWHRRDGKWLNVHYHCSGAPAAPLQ"}, "EGFR (human)": {"target": "EGFR (human) (UniProt P00533)"}, "CSNK1D (human)": {"target": "CSNK1D (human) (UniProt P48730)"}, "FGFR1 (human)": {"target": "FGFR1 (human) (UniProt P11362)"}, "PAK4 (human)": {"target": "PAK4 (human) (UniProt O96013)"}, "PAK7 (human)": {"target": "PAK7 (human) (UniProt Q9P286)", "sequence (Q9P286 whole entry, looked up)": "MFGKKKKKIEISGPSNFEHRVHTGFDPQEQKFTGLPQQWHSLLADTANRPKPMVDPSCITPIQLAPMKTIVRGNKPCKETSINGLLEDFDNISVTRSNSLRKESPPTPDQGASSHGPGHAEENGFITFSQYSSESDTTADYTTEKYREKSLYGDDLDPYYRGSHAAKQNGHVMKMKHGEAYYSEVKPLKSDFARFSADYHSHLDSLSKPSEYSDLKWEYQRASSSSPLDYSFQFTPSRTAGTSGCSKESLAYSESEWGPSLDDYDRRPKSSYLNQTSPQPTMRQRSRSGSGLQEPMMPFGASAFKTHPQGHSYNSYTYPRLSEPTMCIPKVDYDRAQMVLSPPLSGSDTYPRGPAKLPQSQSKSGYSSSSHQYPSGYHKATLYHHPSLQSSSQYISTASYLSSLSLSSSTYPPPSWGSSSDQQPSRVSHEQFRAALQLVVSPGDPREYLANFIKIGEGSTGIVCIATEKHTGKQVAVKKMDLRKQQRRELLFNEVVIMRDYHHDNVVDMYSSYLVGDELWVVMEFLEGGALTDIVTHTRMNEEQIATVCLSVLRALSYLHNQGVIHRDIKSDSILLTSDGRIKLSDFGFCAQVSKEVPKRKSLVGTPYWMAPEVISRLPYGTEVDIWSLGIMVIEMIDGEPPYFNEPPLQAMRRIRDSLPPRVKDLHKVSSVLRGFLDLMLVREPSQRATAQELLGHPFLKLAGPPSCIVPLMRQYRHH"}, "PAK3 (human)": {"target": "PAK3 (human) (UniProt O75914)"}, "MAPK3 (human)": {"target": "MAPK3 (human) (UniProt P27361)"}, "PDPK1 (human)": {"target": "PDPK1 (human) (UniProt O15530)"}, "JAK3 JH1 JH2 (human)": {"target": "JAK3 JH1 JH2 (human) (UniProt P52333)"}, "DAPK3 (human)": {"target": "DAPK3 (human) (UniProt O43293)"}, "FYN (human)": {"target": "FYN (human) (UniProt P06241)"}, "NEK6 (human)": {"target": "NEK6 (human) (UniProt Q9HC98)"}, "MARK2 (human)": {"target": "MARK2 (human) (UniProt Q7KZI7)"}, "NTRK3 (human)": {"target": "NTRK3 (human) (UniProt Q16288)"}, "DAPK2 (human)": {"target": "DAPK2 (human) (UniProt Q9UIK4)"}, "NTRK2 (human)": {"target": "NTRK2 (human) (UniProt Q16620)", "sequence (Q16620 whole entry, looked up)": "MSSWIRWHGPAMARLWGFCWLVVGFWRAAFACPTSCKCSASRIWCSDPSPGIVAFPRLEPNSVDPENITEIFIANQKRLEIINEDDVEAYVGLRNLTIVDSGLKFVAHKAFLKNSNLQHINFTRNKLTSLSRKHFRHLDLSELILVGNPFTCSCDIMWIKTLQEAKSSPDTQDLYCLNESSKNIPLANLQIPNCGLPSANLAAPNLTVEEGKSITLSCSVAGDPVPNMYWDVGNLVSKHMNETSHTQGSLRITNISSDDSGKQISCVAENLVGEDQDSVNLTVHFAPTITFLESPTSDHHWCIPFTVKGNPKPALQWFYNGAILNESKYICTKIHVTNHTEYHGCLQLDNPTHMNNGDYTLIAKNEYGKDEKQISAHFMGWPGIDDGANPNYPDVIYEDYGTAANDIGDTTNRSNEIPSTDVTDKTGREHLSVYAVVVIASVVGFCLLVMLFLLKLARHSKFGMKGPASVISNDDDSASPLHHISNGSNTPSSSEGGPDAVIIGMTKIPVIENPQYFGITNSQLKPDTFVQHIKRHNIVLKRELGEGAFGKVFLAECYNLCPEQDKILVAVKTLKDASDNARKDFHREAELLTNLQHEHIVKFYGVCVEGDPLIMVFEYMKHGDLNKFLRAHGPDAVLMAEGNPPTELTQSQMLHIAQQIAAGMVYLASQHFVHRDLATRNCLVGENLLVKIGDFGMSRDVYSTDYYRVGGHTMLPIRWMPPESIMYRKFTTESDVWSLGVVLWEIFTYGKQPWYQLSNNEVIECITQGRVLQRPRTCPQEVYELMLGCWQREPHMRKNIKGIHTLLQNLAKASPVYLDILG"}, "NEK9 (human)": {"target": "NEK9 (human) (UniProt Q8TD19)"}, "MAP3K11 (human)": {"target": "MAP3K11 (human) (UniProt Q16584)"}, "ERBB4 (human)": {"target": "ERBB4 (human) (UniProt Q15303)"}, "CDK6 CCND1 (human)": {"target": "CDK6 CCND1 (human) (UniProt Q00534+P24385)"}, "PRKCA (human)": {"target": "PRKCA (human) (UniProt P17252)"}, "MAPK8 (human)": {"target": "MAPK8 (human) (UniProt P45983)", "sequence (P45983 whole entry, looked up)": "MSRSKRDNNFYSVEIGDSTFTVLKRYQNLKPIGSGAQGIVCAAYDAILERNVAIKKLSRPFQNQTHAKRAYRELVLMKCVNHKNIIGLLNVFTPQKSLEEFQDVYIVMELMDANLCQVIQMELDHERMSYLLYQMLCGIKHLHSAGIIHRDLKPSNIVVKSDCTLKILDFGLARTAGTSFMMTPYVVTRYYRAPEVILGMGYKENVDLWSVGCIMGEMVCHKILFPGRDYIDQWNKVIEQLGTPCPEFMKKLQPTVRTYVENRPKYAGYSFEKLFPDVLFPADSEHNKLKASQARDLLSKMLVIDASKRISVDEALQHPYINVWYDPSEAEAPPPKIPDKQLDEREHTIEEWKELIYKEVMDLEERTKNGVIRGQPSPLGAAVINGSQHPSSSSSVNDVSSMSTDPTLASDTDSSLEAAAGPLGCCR"}, "ABL1 (human)": {"target": "ABL1 (human) (UniProt P00519)"}, "PKN1 (human)": {"target": "PKN1 (human) (UniProt Q16512)"}, "TSSK1B (human)": {"target": "TSSK1B (human) (UniProt Q9BXA7)"}, "KIT (human)": {"target": "KIT (human) (UniProt P10721)"}, "CDK5 CDK5R1 p25 (human)": {"target": "CDK5 CDK5R1 p25 (human) (UniProt Q00535+Q15078)"}, "TBK1 (human)": {"target": "TBK1 (human) (UniProt Q9UHD2)"}, "IKBKE (human)": {"target": "IKBKE (human) (UniProt Q14164)"}, "SGK3 (human)": {"target": "SGK3 (human) (UniProt Q96BR1)"}},
  "data": [
    {"smiles": "CC(C)(C)c1cc(C=C(C#N)C#N)cc(Br)c1O", "values": [
      {"measurement": "residual activity", "setting": "ITK (human)", "value": 98.4, "unit": "%"},
      {"measurement": "residual activity", "setting": "CAMK1D (human)", "value": 111, "unit": "%"},
      {"measurement": "residual activity", "setting": "LIMK1 (human)", "value": 98.5, "unit": "%"},
      {"measurement": "residual activity", "setting": "PKN2 (human)", "value": 64.3, "unit": "%"},
      {"measurement": "residual activity", "setting": "CSNK1G2 (human)", "value": 100, "unit": "%"},
      {"measurement": "residual activity", "setting": "DMPK (human)", "value": 96.9, "unit": "%"},
      {"measurement": "residual activity", "setting": "CDK5 CDK5R1 p35 (human)", "value": 102, "unit": "%"},
      {"measurement": "residual activity", "setting": "STK39 (human)", "value": 87.6, "unit": "%"},
      {"measurement": "residual activity", "setting": "PIM3 (human)", "value": 89.1, "unit": "%"},
      {"measurement": "residual activity", "setting": "PRKCZ (human)", "value": 102, "unit": "%"},
      {"measurement": "residual activity", "setting": "CAMK2G (human)", "value": 104, "unit": "%"},
      {"measurement": "residual activity", "setting": "EGFR (human)", "value": 106, "unit": "%"},
      {"measurement": "residual activity", "setting": "CSNK1D (human)", "value": 85.5, "unit": "%"},
      {"measurement": "residual activity", "setting": "FGFR1 (human)", "value": 95.9, "unit": "%"},
      {"measurement": "residual activity", "setting": "PAK4 (human)", "value": 124, "unit": "%"},
      {"measurement": "residual activity", "setting": "PAK7 (human)", "value": 119, "unit": "%"},
      {"measurement": "residual activity", "setting": "PAK3 (human)", "value": 96.9, "unit": "%"},
      {"measurement": "residual activity", "setting": "MAPK3 (human)", "value": 105, "unit": "%"},
      {"measurement": "residual activity", "setting": "PDPK1 (human)", "value": 102, "unit": "%"},
      {"measurement": "residual activity", "setting": "JAK3 JH1 JH2 (human)", "value": 110, "unit": "%"},
      {"measurement": "residual activity", "setting": "DAPK3 (human)", "value": 96.4, "unit": "%"},
      {"measurement": "residual activity", "setting": "FYN (human)", "value": 67.2, "unit": "%"},
      {"measurement": "residual activity", "setting": "NEK6 (human)", "value": 111, "unit": "%"},
      {"measurement": "residual activity", "setting": "MARK2 (human)", "value": 81.6, "unit": "%"},
      {"measurement": "residual activity", "setting": "NTRK3 (human)", "value": 104, "unit": "%"},
      {"measurement": "residual activity", "setting": "DAPK2 (human)", "value": 108, "unit": "%"},
      {"measurement": "residual activity", "setting": "NTRK2 (human)", "value": 90.9, "unit": "%"},
      {"measurement": "residual activity", "setting": "NEK9 (human)", "value": 103, "unit": "%"},
      {"measurement": "residual activity", "setting": "MAP3K11 (human)", "value": 97.4, "unit": "%"},
      {"measurement": "residual activity", "setting": "ERBB4 (human)", "value": 94, "unit": "%"},
      {"measurement": "residual activity", "setting": "CDK6 CCND1 (human)", "value": 99.1, "unit": "%"},
      {"measurement": "residual activity", "setting": "PRKCA (human)", "value": 81.4, "unit": "%"},
      {"measurement": "residual activity", "setting": "MAPK8 (human)", "value": 90.4, "unit": "%"},
      {"measurement": "residual activity", "setting": "ABL1 (human)", "value": 59.8, "unit": "%"},
      {"measurement": "residual activity", "setting": "PKN1 (human)", "value": 94.5, "unit": "%"},
      {"measurement": "residual activity", "setting": "TSSK1B (human)", "value": 95.6, "unit": "%"},
      {"measurement": "residual activity", "setting": "KIT (human)", "value": 97.9, "unit": "%"},
      {"measurement": "residual activity", "setting": "CDK5 CDK5R1 p25 (human)", "value": 98.2, "unit": "%"},
      {"measurement": "residual activity", "setting": "TBK1 (human)", "value": 90.2, "unit": "%"},
      {"measurement": "residual activity", "setting": "IKBKE (human)", "value": 86.8, "unit": "%"},
      {"measurement": "residual activity", "setting": "SGK3 (human)", "value": 97.7, "unit": "%"}
    ]},
    {"smiles": "O=C(c1cc2cc(O)ccc2[nH]1)c1cc2cc(O)ccc2[nH]1", "values": [
      {"measurement": "residual activity", "setting": "ITK (human)", "value": 77.7, "unit": "%"},
      {"measurement": "residual activity", "setting": "CAMK1D (human)", "value": 91.5, "unit": "%"},
      {"measurement": "residual activity", "setting": "LIMK1 (human)", "value": 87.9, "unit": "%"},
      {"measurement": "residual activity", "setting": "PKN2 (human)", "value": 97.1, "unit": "%"},
      {"measurement": "residual activity", "setting": "CSNK1G2 (human)", "value": 93.8, "unit": "%"},
      {"measurement": "residual activity", "setting": "DMPK (human)", "value": 96.9, "unit": "%"},
      {"measurement": "residual activity", "setting": "CDK5 CDK5R1 p35 (human)", "value": 57.3, "unit": "%"},
      {"measurement": "residual activity", "setting": "STK39 (human)", "value": 97.6, "unit": "%"},
      {"measurement": "residual activity", "setting": "PIM3 (human)", "value": 98.9, "unit": "%"},
      {"measurement": "residual activity", "setting": "CAMK2G (human)", "value": 89.5, "unit": "%"},
      {"measurement": "residual activity", "setting": "EGFR (human)", "value": 97.6, "unit": "%"},
      {"measurement": "residual activity", "setting": "CSNK1D (human)", "value": 92.5, "unit": "%"},
      {"measurement": "residual activity", "setting": "FGFR1 (human)", "value": 86.5, "unit": "%"},
      {"measurement": "residual activity", "setting": "PAK4 (human)", "value": 111, "unit": "%"},
      {"measurement": "residual activity", "setting": "PAK7 (human)", "value": 85.3, "unit": "%"},
      {"measurement": "residual activity", "setting": "PAK3 (human)", "value": 99.2, "unit": "%"},
      {"measurement": "residual activity", "setting": "MAPK3 (human)", "value": 107, "unit": "%"},
      {"measurement": "residual activity", "setting": "PDPK1 (human)", "value": 97.2, "unit": "%"},
      {"measurement": "residual activity", "setting": "JAK3 JH1 JH2 (human)", "value": 94.5, "unit": "%"},
      {"measurement": "residual activity", "setting": "DAPK3 (human)", "value": 104, "unit": "%"},
      {"measurement": "residual activity", "setting": "FYN (human)", "value": 28.8, "unit": "%"},
      {"measurement": "residual activity", "setting": "NEK6 (human)", "value": 99.6, "unit": "%"},
      {"measurement": "residual activity", "setting": "MARK2 (human)", "value": 59.9, "unit": "%"},
      {"measurement": "residual activity", "setting": "NTRK3 (human)", "value": 13.4, "unit": "%"},
      {"measurement": "residual activity", "setting": "DAPK2 (human)", "value": 101, "unit": "%"},
      {"measurement": "residual activity", "setting": "NTRK2 (human)", "value": 37, "unit": "%"},
      {"measurement": "residual activity", "setting": "NEK9 (human)", "value": 93.6, "unit": "%"},
      {"measurement": "residual activity", "setting": "MAP3K11 (human)", "value": 24.5, "unit": "%"},
      {"measurement": "residual activity", "setting": "ERBB4 (human)", "value": 102, "unit": "%"},
      {"measurement": "residual activity", "setting": "CDK6 CCND1 (human)", "value": 81.2, "unit": "%"},
      {"measurement": "residual activity", "setting": "PRKCA (human)", "value": 84.1, "unit": "%"},
      {"measurement": "residual activity", "setting": "MAPK8 (human)", "value": 112, "unit": "%"},
      {"measurement": "residual activity", "setting": "ABL1 (human)", "value": 27.8, "unit": "%"},
      {"measurement": "residual activity", "setting": "PKN1 (human)", "value": 76.3, "unit": "%"},
      {"measurement": "residual activity", "setting": "TSSK1B (human)", "value": 96.4, "unit": "%"},
      {"measurement": "residual activity", "setting": "KIT (human)", "value": 45.6, "unit": "%"},
      {"measurement": "residual activity", "setting": "CDK5 CDK5R1 p25 (human)", "value": 52.6, "unit": "%"},
      {"measurement": "residual activity", "setting": "TBK1 (human)", "value": 35, "unit": "%"},
      {"measurement": "residual activity", "setting": "IKBKE (human)", "value": 81.6, "unit": "%"},
      {"measurement": "residual activity", "setting": "SGK3 (human)", "value": 113, "unit": "%"}
    ]}
  ]
}
